Test results: patent publication US4208426A, “Pyranochromone derivatives and therapeutic composition comprising same for treatment of allergic diseases” (Eisai Co., Ltd., priority 1977, dated 1980)

Tests used:
[1] = system: homologous PCA reaction; test: Homologous passive cutaneous anaphylaxis (PCA) reaction; format: in vivo, rat (SD (Sprague-Dawley) strain); settings: rat; for Inhibition effect of PCA reaction: oral
Procedure: Anti-egg albumin rat serum in amount of 0.1 ml was intracutaneously injected to the shaved back of a mail rat of SD (Sprague-Dawley) strain weighing 200±30 g. The egg-albumin as antigen in amount of 5 mg/Kg were intravenously injected, together with 40 mg/Kg of dye (Evans blue) 24 hours after antiserum injection. The test materials were given at the respective times before antigen injection as 5% suspension in gum arabic in the case of oral administration (p. o.), while as a solution in physiological salt solution in the case of the intravenous injection (i. v.). The rat was sacrificed 30 minutes after the injection of the antigen, and the skin was removed. The amount of the dye leaked at the reaction locus was measured by extraction method according to Katayama et al.; Microbiol. Immunol. 22, 89-101 (1978), to determine the inhibiting rate on the homologous PCA reaction. There were elected, as the control, cromoglycate and ethyl 6,7-dihydro-6-methyl-8H-pyrano[3,2-g]chromone-2-carboxylate which are known in the art.
Regarding 6,7-dihydro-6,8,8,10-tetramethyl-8H-pyrano[3,2-g] chromone-2-carboxylic acid of this invention, there were determined, in the same manner, inhibition effect of PCA reaction when oral administration was carried out.

[2] = system: actively sensitized rat peritoneal mast cells; test: Histamine release from actively sensitized rat peritoneal mast cells mediated by antigen-antibody reaction; format: cell-based, rat (SD strain); settings: Mast cell, egg-albumine 10 μg/ml, 37° C., read-out: Inhibition rate of histamine release
Procedure: (2) Histamine release from actively sensitized rat peritoneal mast cells mediated by antigen-antibody reaction
A male rate of SD strain weighing 200-400 g was used in this experiment. The sensitization of rats was performed by the method according to Kusner et al.; J. Pharmcol. & Exper. Ther, 184, 41-44 (1973). The mast cells were isolated 14 days after the sensitization by the method according to Johnson, et al.; Am. J. Physiol. 216, 453-459 (1969). The number of the mast cells was adjusted to 2×10^5 /ml. Each one milliliter of the cell suspension was divisionally poured into siliconized test tubes, and placed in an incubator adjusted to 37° C. The egg-albumine, as antigen, was added thereto at the final concentration of 10 μg/ml. At the same time of the addition of antigen, there is added sodium 6,7-dihydro-6,8,8,10-tetramethyl-8H-pyrano[3,2-g] chromone-2-carboxylate according to this invention in the respective concentrations.
The amount of histamine released from the mast cells was determined fluorimetrically according to Suzuki's method [Keio Igaku, 50, 263-270 (1973) Japan].

[3] = cited from earlier work

Cc1c2c(cc3c(=O)cc(C(=O)O)oc13)C(C)CC(C)(C)O2 (stereo not shown) [Sodium 6,7-dihydro-6,8,8,10-tetramethyl-8H-pyrano [3,2-g] chromone-2-carboxylate]
Inhibition rate of PCA reaction ([1]; 0.4 mg/Kg i.v., at the same time): 65.2% | Inhibition rate of PCA reaction ([1]; 20 mg/Kg p.o., before one hour): 64.9% | inhibition at 0.2 µM ([2]; 0.2 μM): 48.2% | inhibition at 1 µM ([2]; 1.0 μM): 66.1% | inhibition at 2 µM ([2]; 2.0 μM): 73.2% | inhibition at 10 µM ([2]; 10.0 μM): 60.7%

CCOC(=O)c1cc(=O)c2cc3c(c(C)c2o1)OC(C)(C)CC3C (stereo not shown) [Ethyl 6,7-dihydro-6,8,8,10-tetramethyl-8H-pyrano [3,2-g] chromone-2-carboxylate]
Inhibition rate of PCA reaction ([1]; 20 mg/Kg p.o., before one hour): 63.8%

CCOC(=O)c1cc(=O)c2c(C)c3c(c(CC)c2o1)OC(C)(C)CC3C (stereo not shown) [Ethyl 6,7-dihydro-10-ethyl-5,6,8,8-tetramethyl-8H-pyrano[3,2-g]chromone-2-carboxylate]
Inhibition rate of PCA reaction ([1]; 20 mg/Kg p.o., before one hour): 64.4%

CCOC(=O)c1cc(=O)c2c(C)c3c(c(C)c2o1)OC(C)(C)C(C)C3 (stereo not shown) [Ethyl 6,7-dihydro-5,7,8,8,10-pentamethyl-8H-pyrano[3,2-g]chromone-2-carboxylate]
Inhibition rate of PCA reaction ([1]; 20 mg/Kg p.o., before one hour): 47.9%

CCOC(=O)c1cc(=O)c2cc3c(c(OC)c2o1)OC(C)(C)CC3C (stereo not shown) [Ethyl 6,7-dihydro-10-methoxy-6,8,8-trimethyl-8H-pyrano [3,2-g] chromone-2-carboxylate]
Inhibition rate of PCA reaction ([1]; 20 mg/Kg p.o., before one hour): 62.2%

Cc1c2c(cc3c(=O)cc(C(=O)O)oc13)C(C)CC(C)(C)O2 (stereo not shown) [6,7-Dihydro-6,8,8,10-tetramethyl-8H-pyrano [3,2-g] chromone-2-carboxylic acid]
Inhibition effect of PCA reaction, dose dependence ([1]; oral administration): dose-dependent inhibiting effect | Time of administration before antigen with the most remarkable inhibition effect of PCA reaction ([1]; oral administration): 15 to 30 min | Inhibition effect of PCA reaction ([1]; 1 mg/Kg, before 5 minutes): 15.1% | Inhibition effect of PCA reaction ([1]; 3 mg/Kg, before 5 minutes): 54.8% | Inhibition effect of PCA reaction ([1]; 10 mg/Kg, before 2 minutes): 44.1% | Inhibition effect of PCA reaction ([1]; 10 mg/Kg, before 5 minutes (dose series)): 78.5% | Inhibition effect of PCA reaction ([1]; 10 mg/Kg, before 5 minutes (time-course series)): 62.2% | Inhibition effect of PCA reaction ([1]; 10 mg/Kg, before 15 minutes): 82.0% | Inhibition effect of PCA reaction ([1]; 10 mg/Kg, before 30 minutes): 84.3% | Inhibition effect of PCA reaction ([1]; 10 mg/Kg, before 60 minutes): 54.3% | Inhibition effect of PCA reaction ([1]; 30 mg/Kg, before 5 minutes): 90.3%

CCOC(=O)c1cc(=O)c2cc3c(cc2o1)OCCC3C (stereo not shown) [ethyl 6,7-dihydro-6-methyl-8H-pyrano[3,2-g]chromone-2-carboxylate, reference compound]
Inhibition rate of PCA reaction ([1]; 20 mg/Kg p.o., before one hour): 23.7%

O=C(O)c1cc(=O)c2c(OCC(O)COc3cccc4oc(C(=O)O)cc(=O)c34)cccc2o1 [Chromoglycate, reference compound]
Effect on oral administration [3]: not effective when it is orally administered | Inhibition rate of PCA reaction ([1]; 6 mg/Kg i.v., at the same time): 88.6% | Inhibition rate of PCA reaction ([1]; 20 mg/Kg p.o., before one hour): 0%
